Reference: PMC6073313, “Comparison of the Anion Inhibition Profiles of the α-CA Isoforms (SpiCA1, SpiCA2 and SpiCA3) from the Scleractinian Coral Stylophora pistillata” (International Journal of Molecular Sciences, 2018)

Each compound was assayed against T1, SpiCA3 (Stylophora pistillata, UniProt A0A1B0Y357) (assay: stopped-flow CO2 hydration, phenol red, Cheng-Prusoff). Settings: not given.
T1 construct: gene CA3
T1 sequence (A0A1B0Y357 1-258): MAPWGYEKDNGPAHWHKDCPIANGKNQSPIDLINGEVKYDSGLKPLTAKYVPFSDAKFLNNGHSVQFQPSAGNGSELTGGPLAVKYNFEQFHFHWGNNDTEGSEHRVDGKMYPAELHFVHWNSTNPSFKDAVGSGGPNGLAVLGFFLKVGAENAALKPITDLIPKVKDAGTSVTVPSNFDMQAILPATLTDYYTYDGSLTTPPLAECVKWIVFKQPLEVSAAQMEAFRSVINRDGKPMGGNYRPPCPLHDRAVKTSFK
Type: biochemical

SMILES | Ki [mM]
Cl [Cl^−] | 0.51
O=C(O)O [HCO3^−] | 0.4
S [HS^−] | 0.34
I [I^−] | 0.56
[N-]=[N+]=[N-] [N3^−] | 0.08
O=NO [NO2^−] | 0.45
OB(O)c1ccccc1 [Ph-B(OH)2] | > 100
N#C[SeH] [SeCN^−] | 0.15
O=S(=O)(O)C(F)(F)F [Triflate] | 0.29

Same assay, conditions: read-out: KI [mM] ^# / SpiCA3 ^c

Ki [mM] | SMILES
0.47 | S=C(S)S [CS3^2^−]
0.044 | CCN(CC)C(=S)S [Et2NCS2^−]
0.0007 | NS(N)(=O)=O [H2NSO2NH2]
> 100 | NS(=O)(=O)O [H2NSO3H]
